From US20180064729A1, “Treatment of Pulmonary Disease” (Intercept Pharmaceuticals, Inc., priority 2012, published 2018)
Entries after “also recorded” stand apart in the source; their conditions may differ.

What was measured:
[1] = test system: C57B1/6 wild-type and FXR−/− mice; test: murine bleomycin-induced pulmonary fibrosis model; assay type: in vivo; conditions: bleomycin day 0; 5 mg/kg daily; 22 days
Experimental: The murine model of bleomycin-induced pulmunary fibrosis was induced in C57B1/6 wild-type and FXR^−/− mice (females, 6-8 weeks old). Groups of treatment included: • WT mice: A—saline (day 0); B—bleomycin (day 0); C—bleomycin (day 0)- • Compound 1 (also referred to as 6ECDCA) (5 mg/kg, daily) • FXR^−/− mice: D—saline (day 0); E—bleomycin (day 0); F—bleomycin (day 0) • Compound 1 (also referred to as 6ECDCA) (5 mg/kg, daily).
After 22 days, the mice were sacrified and the subsequent analyses were performed: (1) H&E and […] staining on lung sections; (2) Quantification of collagen I into the lung by qRT-PCR and Sircol collagen assay; (3) FXR, SHP and CXCL12 mRNA quantification by qRT-PCR; and (4) CXCL12 protein quantification by ELISA on lung homogenates.

small pulmonary arteries = test: MCT-induced pulmonary hypertensive rat model: pulmonary artery wall thickness; assay type: in vivo; conditions: for MCT-induced increase in wall thickness (WT): OCA 30 mg/kg oral, p<0.00001; for wall thickness (WT) in small pulmonary arteries: MCT 60 mg/kg s.c. alone
Experimental: (§1) Pulmonary hypertension was induced by subcutaneous injection of 60 mg/kg monocrotaline (MCT) (Sigma Chemicals, St. Louis, Mo., USA) dissolved in 0.5 N HCl solution. Briefly, male Sprague-Dawley (SD) rats, weighing between 200 to 250 g, were housed in climate-controlled conditions with a 12 hours light:12 hours dark cycle, with free access to chow and water. SD rats were randomly allocated to the following groups: • 1) SD rats left untreated and sacrificed after 7 (n=5) or 28 (n=5) days; • 2) SD rats receiving a single subcutaneous injection of vehicle MCT sacrificed after 7 days (n=5); • 3) SD rats receiving a single subcutaneous injection of vehicle MCT sacrificed after 28 days (n=10); • 4) SD rats receiving a single subcutaneous injection of MCT [60 mg/kg, n=5] sacrificed after 7 days; • 5) SD rats receiving single subcutaneous injection of MCT [60 mg/kg, n=15] sacrificed after 28 days; • 6) SD rats receiving single subcutaneous injection of MCT [60 mg/kg] and immediately treated with OCA (30 mg/kg, daily 5 days a week, by oral gavage, n=5) for 7 days]; • 7) SD rats receiving single subcutaneous injection of MCT [60 mg/kg] and immediately treated with OCA (30 mg/kg, daily 5 days a week, by oral gavage, n=10) for 28 days]; • 8) SD rats receiving single subcutaneous injection of MCT [60 mg/kg] and immediately treated with tadalafil (10 mg/kg/day, in drinking water, n=5) for 7 days]; • 9) SD rats receiving single subcutaneous injection of MCT [60 mg/kg] and immediately treated with tadalafil (10 mg/kg/day, in drinking water, n=10) for 28 days]; • 10) SD rats receiving single subcutaneous injection of MCT [60 mg/kg] and immediately treated with vehicle OCA (by oral gavage, n=5) for 7 days; • 11) SD rats receiving single subcutaneous injection of MCT [60 mg/kg] and immediately treated with vehicle OCA (by oral gavage, n=10) for 28 days.
Pulmonary vascular remodeling was evaluated by determining wall thickness (WT). Lungs were fixed in 10% buffered formalin and embedded in paraffin, then sectioned at a thickness of 5 μm and stained with hematoxylin-eosin. Ten pulmonary arteries were examined for structural integrity using a morphometric image analysis system independently by two pathologists who were blinded to animal grouping. WT, vessel diameter (ED), were determined. WT(%)=(2×WT/ED)×100%. More than 50 images of pulmonary arterioles (25 to 100 μm diameters) from at least three tissue sections at a magnification of ×20 were captured using amicroscopic digital camera and analyzed using an image analysisprogram (Fiji-win32). The external diameter (D) and medial thickness oneither side (M1 and M2) were measured along the shortest diameter. The medial wall thickness was expressed as follows: % wall thickness=[(M1+M2)/2/D]×100.

[2] = test system: DSS (Dahl salt-sensitive) rat; test: Dahl salt-sensitive (DSS) rat high salt diet study; assay type: in vivo
Description: The rodent model for salt-sensitive hypertension was a DSS (Dahl salt-sensitive) rat (e.g., Rapp). […] Specifically, the rodent models used for the study were male 4-week old DSS rats (e.g., SS/JrHsd) from Harlan Laboratories. The normal diet of the DSS rats was 0.49% NaCl and the high salt diet was 8% NaCl (e.g., Teklad Custom Research Diet). The rats were divided into four groups (herein referred to as DSS study rats): • Group 1; Normal salt diet (1% Methylcellulose) (N=6) • Group 2; High-salt diet (Vehicle; 1% MC) (N=9) • Group 3; High-salt diet (6ECDCA 10mg/kg/day) (N=6) • Group 4; High-salt diet (6ECDCA 30mg/kg/day) (N=9)
The following analyses were carried out: ADMA and NO levels in serum and urine and tissues (e.g., liver, muscle and kidney), blood pressure and heart rate, fasting blood glucose and insulin (HOMA-IR), ipGTT (IR-index), and urinary protein and creatinine. Additional studies such as electrolytes (Na+), histological analysis and TGFbeta expression in kidney, DDAH expression and activity in liver, skeletal muscle and kidney, and Akt-phosphorylation level in liver, skeletal muscle and kidney can also be carried out.
6ECDCA was administered orally daily for 6-weeks. Blood and urine collections were performed at week 0 and week 6 and analyzed by methods known in the art. Blood pressure measurement was performed at week 0, 1, 2, 4 and 6 by tail cuff devices, which was performed on conscious models and was non-invasive. The blood pressure was also obtained via catheter, which was performed when the model was sacrificed. The glucose challenge test was performed at week 5. Renal function was analyzed by measuring the urinary volume, protein and creatinine in a 24 h-urine sample. Histological analysis was performed using the Masson&Trichrome staining. Insulin resistance was analyzed using the ipGTT test and the HOMA/IR index. The ADMA and NO levels were detected in blood concentration and urinary excretion (FIG. 1).

[3] = test system: murine lung fibroblast cell line (ATCC number CCL-206); test: Col I and CXCL12 expression in stimulated lung fibroblasts (qRT-PCR, ELISA, Sircol); assay type: cell-based; conditions: 24 hours
Experimental: FXR activation reduced the production of collagen I and […] by resident fibroblasts. Specifically, after a 24 hour period of starving, cells from the murine lung fibroblast cell line (ATCC number CCL-206) were stimulated with or without TGFβ1 (10 ng/ml) and 6ECDCA (10 μM) for 24 hours and then the FXR, SHP and Col I gene expression was analyzed by qRT-PCR. After a 24 hours period of starving, cells from the murine lung fibroblast cell line (ATCC number CCL-206) were stimulated with or without TNFα (10 ng/ml) and 6ECDCA (10 μM) for 24 hours and then the FXR, SHP and CXCL12 gene expression was analyzed by qRT-PCR.
The downregulation of Col I and CXCL12 induced by 6ECDCA was FXR-mediated. After an overnight period of starving, murine lung fibroblast cell line (ATCC number CCL-206) was stimulated with or without TGFβ1 (10 ng/ml) and 6ECDCA (1 μM) for 24 hours—with and without block of the FXR by siRNA—and then the FXR, SHP, Col I and CXCL12 gene expression was analyzed by qRT-PCR. CXCL12 and Col I secretion in the supernatants was analyzed by ELISA and the Sircol collagen assay, respectively.
The downreguation of Col I and CXCL12 induced by 6ECDCA was SHP-mediated. Specifically, transfection of pulmonary fibroblasts with vector carrying the HA-SHP chimera was carried out to induce a SHP overexpression (WB analysis of the HA-SHP expression). Col I and CXCL12 expression (by qRT-PCR) was analyzed at baseline and after stimulation with TGFβ1. SHP overexpression was sufficient to down-regulate the Col I and CXCL12 expression, basically and after stimulation with TGFβ1.
After an overnight period of starving, murine lung fibroblast cell line (ATCC number CCL-206) were stimulated with/without TGFβ1 (10 ng/ml) and 6ECDCA (1 μM) for 24 hours—with and without block of the SHP by siRNA—and then the FXR, SHP, Col I and CXCL12 gene expression was analyzed by qRT-PCR. CXCL12 and Col I secretion in the supernatants was analyzed by ELISA and the Sircol collagen assay, respectively.

[4] = test system: lung mRNA of inflammation, endothelium-proliferative and NO-signaling genes; test: MCT-induced pulmonary hypertensive rat model: lung mRNA expression by qRT-PCR; assay type: in vivo
Experimental: as §1
mRNA expression analysis of genes involved in inflammation [interleukin 6 (IL-6), monocyte chemoattractant protein-1 (MCP-1/CCL2), cyclooxygenase-2], endothelium-proliferative factors (vascular endothelial growth factor (VEGF) and angiotensin-converting enzyme 2 (ACE2)), NO-signaling [endothelial nitric oxide synthase (eNOS), phosphodiesterase type 5 (PDES), cyclic guanylate cyclase subunits type 1a3 and 1b3, GC1a3, GC1b3, protein kinase G 1, PKG1], were performed. Isolation of RNA from lung, qRT-PCR was performed according to the fluorescent TaqMan methodology. PCR primers and probes specific for mRNA sequences of aforementioned target genes and of the reference gene 18S rRNA was purchased from Life Technologies (Paisley, UK).

Sprague-Dawley (SD) rats [5] = test: MCT-induced pulmonary hypertensive rat model: right ventricular hypertrophy index; assay type: in vivo; conditions: day 28; MCT 60 mg/kg s.c.; OCA 30 mg/kg oral gavage, tadalafil 10 mg/kg/day in drinking water
Experimental: (§2) Pulmonary hypertension was induced by subcutaneous injection of 60 mg/kg monocrotaline (MCT) (Sigma Chemicals, St. Louis, Mo., USA) dissolved in 0.5 N HCl solution. Briefly, male Sprague-Dawley (SD) rats, weighing between 200 to 250 g, were housed in climate-controlled conditions with a 12 hours light:12 hours dark cycle, with free access to chow and water. […]

Sprague-Dawley (SD) rats [6] = test: MCT-induced pulmonary hypertensive rat model: survival (Kaplan-Meier); assay type: in vivo; conditions: MCT-treated rats, study period 28 days
Experimental: as §2
During the study period, the animals were observed daily for mortality, and median survival time in each group was calculated with Kaplan-Meier analysis.

## CC[C@H]1[C@@H](O)[C@@H]2[C@H](CC[C@]3(C)[C@@H]([C@H](C)CCC(=O)O)CC[C@@H]23)[C@@]2(C)CC[C@@H](O)C[C@@H]12 [Compound 1, 3α,7α-dihydroxy-6α-ethyl-5β-cholanic acid]
[1]
  pulmonary fibrosis: ameliorates the pulmonary fibrosis
Small pulmonary arteries; day 7
  MCT-induced increase in wall thickness (WT): markedly reduced
Small pulmonary arteries; day 28
  MCT-induced increase in wall thickness (WT): markedly reduced
[2]
  ADMA levels in serum and urine: did not reduce ADMA
  albuminuria induced by high salt diet: reduced albuminuria
[2]; 10 mg/kg
  IR-index reduction compared to the vehicle: 38%
[2]; 10 mg/kg and 30 mg/kg, seven week study
  body weight: did not affect the body weight
[2]; 30 mg/kg
  IR-index reduction compared to the vehicle: 21%
  lung weight (pulmonary congestion): reduced lung weight
  renal protection: showed renal protection
[2]; 10 and 30 mg/kg/day oral
  heart rate: did not affect heart rate
[2]; 10 and 30 mg/kg/day oral, listed as 6ECDCA
  blood pressure: did not affect heart rate blood pressure or reduce blood pressure; also recorded: did not reduce blood pressure
[2]; GTT
  glucose levels: trended lower
  insulin levels: trended lower
[2]; GTT at week 5
  insulin sensitivity (Insulin Resistance-Index): reversed insulin resistance
[3]; TGFβ1 10 ng/ml, 6ECDCA 1 μM, SHP overexpression / block of SHP by siRNA
  downregulation of Col I and CXCL12, dependence on SHP: SHP-mediated
[3]; TGFβ1 10 ng/ml, 6ECDCA 1 μM, with and without block of FXR by siRNA
  downregulation of Col I and CXCL12, dependence on FXR: FXR-mediated
[3]; TGFβ1 10 ng/ml, 6ECDCA 10 μM
  production of collagen I by resident fibroblasts (Col I gene expression): reduced
[3]; TNFα 10 ng/ml, 6ECDCA 10 μM
  production of CXCR12 by resident fibroblasts (CXCL12 gene expression): reduced
[4]; 28-day treatment, p=0.01 vs. MCT
  PKG1 mRNA expression: significantly upregulates
[4]; after 7 days of OCA dosing
  GC1a3 mRNA expression: significant increase
  PDES mRNA expression: significant increase
  PKG1 mRNA expression: significant increase
[4]; day 7, lung
  MCT-induced MCP-1 expression: significantly reduced
[4]; day 28, lung
  IL-6 mRNA expression: significantly reduced
  MCT-induced MCP-1 expression: significantly reduced
[4]; day 28, p=0.001 vs. MCT
  VEGF mRNA expression: significantly upregulate
[4]; day 28, p=0.038 vs. MCT
  ACE2 mRNA expression: significantly upregulate
Sprague-Dawley (SD) rats [5]
  right ventricular hypertrophy index (RVH), RV/(LV+S): completely normalized RVH
Sprague-Dawley (SD) rats [6]
  mortality rate: 13.2%

## C[C@H]1C(=O)O[C@@H]2CCN3CC=C(COC(=O)[C@](C)(O)[C@]1(C)O)[C@H]23 [MCT, monocrotaline, reference compound]
Small pulmonary arteries; day 7, control 19±0.7
  wall thickness (WT) in small pulmonary arteries: 33±0.8%
Small pulmonary arteries; day 28, control 16.8±0.8%
  wall thickness (WT) in small pulmonary arteries: 32.6±0.7%
Sprague-Dawley (SD) rats [6]
  mortality rate: 24%
